{"source": "patent US10131643B2", "about": "“Tizoxanide carbamate and pharmaceutical use thereof” (priority 2013, dated 2018)", "key": {"[1]": {"settings": "oral administration in mice, in words; for Parameters such as Tmax, Cmax, MRT, AUC and relative bioavailability compared with nitazoxanide: calculated as tizoxanide"}, "[2]": {"settings": "rat, in vivo, po"}, "[3]": {"tested_on": "Mycobacterium tuberculosis", "settings": "cited from earlier work"}, "Helicobacter pylori": {"tested_on": "Helicobacter pylori", "settings": "103 strains of Helicobacter pylori; cited from earlier work"}, "PR8 influenza virus": {"tested_on": "PR8 influenza virus", "settings": "PR8 influenza virus in MDCK cells; cited from earlier work"}, "[4]": {"settings": "in vivo, cited from earlier work"}}}
{"smiles": "CN(C)C(=O)Oc1ccccc1C(=O)Nc1ncc([N+](=O)[O-])s1", "note": "[Compound 6]", "values": [{"measurement": "Parameters such as Tmax, Cmax, MRT, AUC and relative bioavailability compared with nitazoxanide", "setting": "[1]", "value": "significantly superior"}, {"measurement": "Oral absorption compared with the control agent nitazoxanide (NTZ)", "setting": "[1]", "value": "much better"}]}
{"smiles": "O=C(Nc1ncc([N+](=O)[O-])s1)c1ccccc1OC(=O)N1CCOCC1", "note": "[Compound 1, 2-(5-nitrothiazol-2-yl-carbamoyl)phenylmorpholine-4-carboxylate]", "values": [{"measurement": "Parameters such as Tmax, Cmax, MRT, AUC and relative bioavailability compared with nitazoxanide", "setting": "[1]", "value": "significantly superior"}, {"measurement": "Oral absorption compared with the control agent nitazoxanide (NTZ)", "setting": "[1]", "value": "much better"}]}
{"smiles": "O=C(Nc1ncc([N+](=O)[O-])s1)c1ccccc1OC(=O)N1CCCCC1", "note": "[Compound 3]", "values": [{"measurement": "Parameters such as Tmax, Cmax, MRT, AUC and relative bioavailability compared with nitazoxanide", "setting": "[1]", "value": "significantly superior"}, {"measurement": "Oral absorption compared with the control agent nitazoxanide (NTZ)", "setting": "[1]", "value": "much better"}]}
{"smiles": "CCOC(=O)C1CCN(C(=O)Oc2ccccc2C(=O)Nc2ncc([N+](=O)[O-])s2)CC1", "note": "[Compound 5]", "values": [{"measurement": "Parameters such as Tmax, Cmax, MRT, AUC and relative bioavailability compared with nitazoxanide", "setting": "[1]", "value": "comparable"}, {"measurement": "Oral absorption compared with the control agent nitazoxanide (NTZ)", "setting": "[1]", "value": "faster"}]}
{"smiles": "CC(=O)Oc1ccccc1C(=O)Nc1ncc([N+](=O)[O-])s1", "note": "[NTZ, 2-acetoxy-N-(5-nitro-2-thiazolyl)benzamide]", "values": [{"measurement": "Absolute bioavailability", "setting": "[2]", "value": 7.2, "unit": "%"}, {"measurement": "Minimal inhibitory concentration (MIC), median value", "setting": "[3]", "value": 16, "unit": "µg/mL"}, {"measurement": "50% minimal inhibitory concentration (MIC50)", "setting": "Helicobacter pylori", "value": 1, "unit": "µg/mL"}, {"measurement": "90% minimal inhibitory concentration (MIC90)", "setting": "Helicobacter pylori", "value": 4, "unit": "µg/mL"}, {"measurement": "EC50", "setting": "PR8 influenza virus", "value": 1, "unit": "µg/mL"}, {"measurement": "EC90", "setting": "PR8 influenza virus", "value": 7, "unit": "µg/mL"}, {"measurement": "Detection of the parent drug in plasma, urine, bile and feces", "setting": "[4]; po", "value": "not detectable"}, {"measurement": "Part of the oral dose excreted by feces", "setting": "[4]", "value": "about ⅔"}, {"measurement": "Part of the oral dose excreted by urine", "setting": "[4]", "value": "about ⅓"}]}
{"smiles": "CN1CCN(C(=O)Oc2ccccc2C(=O)Nc2ncc([N+](=O)[O-])s2)CC1", "note": "[Compound 2, 2-(5-nitrothiazol-2-yl-carbamoyl)phenyl-4-methylpiperazine-1-carboxylate]", "values": [{"measurement": "Parameters such as Tmax, Cmax, MRT, AUC and relative bioavailability compared with nitazoxanide", "setting": "[1]", "value": "significantly superior"}, {"measurement": "Oral absorption compared with the control agent nitazoxanide (NTZ)", "setting": "[1]", "value": "faster"}]}
{"smiles": "O=C(Nc1ncc([N+](=O)[O-])s1)c1ccccc1OC(=O)N1CCCC1", "note": "[Compound 4, 2-((5-nitrothiazol-2-yl)carbamoyl)phenyl-pyrrolidine-1-carboxylate]", "values": [{"measurement": "Parameters such as Tmax, Cmax, MRT, AUC and relative bioavailability compared with nitazoxanide", "setting": "[1]", "value": "significantly superior"}, {"measurement": "Oral absorption compared with the control agent nitazoxanide (NTZ)", "setting": "[1]", "value": "much better"}]}
{"smiles": "O=C(Nc1ncc([N+](=O)[O-])s1)c1ccccc1O", "note": "[tizoxanide]", "values": [{"measurement": "50% minimal inhibitory concentration (MIC50)", "setting": "Helicobacter pylori", "value": 1, "unit": "µg/mL"}, {"measurement": "90% minimal inhibitory concentration (MIC90)", "setting": "Helicobacter pylori", "value": 4, "unit": "µg/mL"}]}
